Measurements as given in US20220142941A1, “COMBINATION THERAPEUTIC REGIMENS WITH 1,6-DIBROMO-1,6-DIDEOXY-DULCITOL” (Eleison Pharmaceuticals LLC, priority 2019, published 2022).
Entries after “also recorded” stand apart in the source; their conditions may differ.

Legend:
Type in all cases: cell-based, human
[1] = test system: panel of 20 patient derived cell cultures; experiment: DBD combination treatment, overall result over the panel; settings: Tables 2 and 3, day 5 and day 8, all cultures
Method: (§1) Crystalline DBD polymorph treatment was combined with chemotherapy, radiotherapy and targeted inhibitors to determine whether the crystalline DBD polymorph form could: enhance efficacy of the conventional therapies; enhance efficacy when combined with newer ‘targeted’ therapies; or would make (a subset of) cultures more sensitive to this treatment.
(§2) Therefore, cultures were treated with: • a.

GS359NS = experiment: DBD combination treatment, viability enhancement factor; settings: GS359NS (p15 + p14), labelled therapy combined with crystalline DBD polymorph
Method: as §1, §2

GS249NS = experiment: as above; settings: GS249NS (p17), labelled therapy combined with crystalline DBD polymorph
Method: as §1, §2

GS304NS = experiment: as above; settings: GS304NS (p16), labelled therapy combined with crystalline DBD polymorph
Method: as §1, §2

GS224NS = experiment: as above; settings: GS224NS (p17), labelled therapy combined with crystalline DBD polymorph
Method: as §1, §2

GS102periNS = experiment: as above; settings: GS102periNS (p20 + p21), labelled therapy combined with crystalline DBD polymorph
Method: as §1, §2

GS365NS = experiment: as above; settings: GS365NS (p17 + p16), labelled therapy combined with crystalline DBD polymorph
Method: as §1, §2

GS281NS = experiment: as above; settings: GS281NS (p15), labelled therapy combined with crystalline DBD polymorph
Method: as §1, §2

GS184NS = experiment: as above; settings: GS184NS (p18 + p19), labelled therapy combined with crystalline DBD polymorph;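 also: DBD at its own IC50 and half IC50 determined at Day 5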
Method: as §1, §2

GS245NS = experiment: as above; settings: GS245NS (p16 + p15), labelled therapy combined with crystalline DBD polymorph
Method: as §1, §2

GS257NS = experiment: as above; settings: GS257NS (p16 + p17), labelled therapy combined with crystalline DBD polymorph;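 also: DBD at its own IC50 and half IC50 determined at Day 5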
Method: as §1, §2

GS279periNS = experiment: as above; settings: GS279periNS (p16 + p15), labelled therapy combined with crystalline DBD polymorph;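 also: DBD at its own IC50 and half IC50 determined at Day 5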
Method: as §1, §2

GS323periNS = experiment: as above; settings: Day 5; GS323periNS (p20 + p19); labelled therapy combined with crystalline DBD polymorph
Method: as §1, §2

GS104periNS = experiment: as above; settings: GS104periNS (p21 + p22), labelled therapy combined with crystalline DBD polymorph
Method: as §1, §2

GS203NS = experiment: as above; settings: GS203NS (P19 + p18), labelled therapy combined with crystalline DBD polymorph
Method: as §1, §2

GS186periNS = experiment: as above; settings: GS186periNS (p15), labelled therapy combined with crystalline DBD polymorph
Method: as §1, §2

GS324coreNS = experiment: as above; settings: GS324coreNS (p19), labelled therapy combined with crystalline DBD polymorph
Method: as §1, §2

GS186coreNS = experiment: as above; settings: GS186coreNS (p18), labelled therapy combined with crystalline DBD polymorph
Method: as §1, §2

GS279coreNS = experiment: as above; settings: Day 5; GS279coreNS (p12 + p13); labelled therapy combined with crystalline DBD polymorph
Method: as §1, §2

GS289NS = experiment: as above; settings: GS289NS (p15 + p16), labelled therapy combined with crystalline DBD polymorph;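 also: DBD at its own IC50 and half IC50 determined at Day 5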
Method: as §1, §2

GS261NS = experiment: as above; settings: GS261NS (p13), labelled therapy combined with crystalline DBD polymorph
Method: as §1, §2

Compound	enhancement factor (viability % of most effective monotherapy divided by viability % of combination) (GS359NS; Day 5)	enhancement factor (viability % of most effective monotherapy divided by viability % of combination) (GS359NS; Day 8)	enhancement factor (viability % of most effective monotherapy divided by viability % of combination) (GS249NS; Day 5)	enhancement factor (viability % of most effective monotherapy divided by viability % of combination) (GS304NS; Day 5)	enhancement factor (viability % of most effective monotherapy divided by viability % of combination) (GS304NS; Day 8)	enhancement factor (viability % of most effective monotherapy divided by viability % of combination) (GS224NS; Day 5)	enhancement factor (viability % of most effective monotherapy divided by viability % of combination) (GS224NS; Day 8)	enhancement factor (viability % of most effective monotherapy divided by viability % of combination) (GS102periNS; Day 5)	enhancement factor (viability % of most effective monotherapy divided by viability % of combination) (GS102periNS; Day 8)	enhancement factor (viability % of most effective monotherapy divided by viability % of combination) (GS365NS; Day 5)	enhancement factor (viability % of most effective monotherapy divided by viability % of combination) (GS365NS; Day 8)	enhancement factor (viability % of most effective monotherapy divided by viability % of combination) (GS281NS; Day 5)	enhancement factor (viability % of most effective monotherapy divided by viability % of combination) (GS281NS; Day 8)	enhancement factor (viability % of most effective monotherapy divided by viability % of combination) (GS184NS; Day 5)	enhancement factor (viability % of most effective monotherapy divided by viability % of combination) (GS184NS; Day 8)	enhancement factor (viability % of most effective monotherapy divided by viability % of combination) (GS245NS; Day 5)	enhancement factor (viability % of most effective monotherapy divided by viability % of combination) (GS245NS; Day 8)	enhancement factor (viability % of most effective monotherapy divided by viability % of combination) (GS257NS; Day 5)	enhancement factor (viability % of most effective monotherapy divided by viability % of combination) (GS257NS; Day 8)	enhancement factor (viability % of most effective monotherapy divided by viability % of combination) (GS279periNS; Day 5)	further results
Cc1ccc(NC(=O)c2ccc(CN3CCN(C)CC3)cc2)cc1Nc1nccc(-c2cccnc2)n1 [Imatinib]	–	–	–	–	–	–	–	–	–	–	–	–	–	–	–	–	–	–	–	–	enhancement factors overall, in combination with DBD [1]: highest enhancement factors; also recorded: high enhancement factor, most cases
Cc1[nH]c2ccccc2c1CCNCc1ccc(/C=C/C(=O)NO)cc1 [Panobinostat]	4.343	5.512	1.074	4.406	5.405	4.399	7.387	1.591	3.863	2.914	3.253	1.480	4.353	1.712	2.357	1.129	1.202	1.643	1.590	1.943	enhancement factor (viability % of most effective monotherapy divided by viability % of combination) (GS249NS; Day 8): 0.944; enhancement factor (viability % of most effective monotherapy divided by viability % of combination) (GS279periNS; Day 8): 5.488; enhancement factor (viability % of most effective monotherapy divided by viability % of combination) (GS323periNS): 1.656; enhancement factor (viability % of most effective monotherapy divided by viability % of combination) (GS104periNS; Day 5): 1.339; enhancement factor (viability % of most effective monotherapy divided by viability % of combination) (GS104periNS; Day 8): 1.796; enhancement factor (viability % of most effective monotherapy divided by viability % of combination) (GS203NS; Day 8): 1.651; enhancement factor (viability % of most effective monotherapy divided by viability % of combination) (GS186periNS; Day 5): 2.105; enhancement factor (viability % of most effective monotherapy divided by viability % of combination) (GS186periNS; Day 8): 8.116; enhancement factor (viability % of most effective monotherapy divided by viability % of combination) (GS324coreNS; Day 5): 3.192; enhancement factor (viability % of most effective monotherapy divided by viability % of combination) (GS324coreNS; Day 8): 9.253; enhancement factor (viability % of most effective monotherapy divided by viability % of combination) (GS186coreNS; Day 5): 2.557; enhancement factor (viability % of most effective monotherapy divided by viability % of combination) (GS186coreNS; Day 8): 5.363; enhancement factor (viability % of most effective monotherapy divided by viability % of combination) (GS279coreNS): 5.962; enhancement factor (viability % of most effective monotherapy divided by viability % of combination) (GS289NS; Day 5): 2.519; enhancement factor (viability % of most effective monotherapy divided by viability % of combination) (GS289NS; Day 8): 3.535; enhancement factor (viability % of most effective monotherapy divided by viability % of combination) (GS261NS; Day 5): 1.392; enhancement factor (viability % of most effective monotherapy divided by viability % of combination) (GS261NS; Day 8): 2.253
Cn1nnc2c(C(N)=O)ncn2c1=O [TMZ, Temozolomide]	1.830	1.700	1.602	1.147	1.134	1.335	1.470	1.268	1.309	1.156	1.019	1.264	1.161	1.362	1.531	1.099	1.088	1.005	0.858	1.162	enhancement factor (viability % of most effective monotherapy divided by viability % of combination) (GS279periNS; Day 8): 1.129; enhancement factor (viability % of most effective monotherapy divided by viability % of combination) (GS323periNS): 1.553; enhancement factor (viability % of most effective monotherapy divided by viability % of combination) (GS104periNS; Day 5): 1.101; enhancement factor (viability % of most effective monotherapy divided by viability % of combination) (GS104periNS; Day 8): 0.987; enhancement factor (viability % of most effective monotherapy divided by viability % of combination) (GS203NS; Day 5): 1.055; enhancement factor (viability % of most effective monotherapy divided by viability % of combination) (GS203NS; Day 8): 1.159; enhancement factor (viability % of most effective monotherapy divided by viability % of combination) (GS186periNS; Day 5): 2.167; enhancement factor (viability % of most effective monotherapy divided by viability % of combination) (GS186periNS; Day 8): 1.220; enhancement factor (viability % of most effective monotherapy divided by viability % of combination) (GS324coreNS; Day 5): 1.700; enhancement factor (viability % of most effective monotherapy divided by viability % of combination) (GS324coreNS; Day 8): 1.377; enhancement factor (viability % of most effective monotherapy divided by viability % of combination) (GS186coreNS; Day 5): 1.751; enhancement factor (viability % of most effective monotherapy divided by viability % of combination) (GS186coreNS; Day 8): 2.029; enhancement factor (viability % of most effective monotherapy divided by viability % of combination) (GS279coreNS): 1.440; enhancement factor (viability % of most effective monotherapy divided by viability % of combination) (GS289NS; Day 5): 1.376; enhancement factor (viability % of most effective monotherapy divided by viability % of combination) (GS289NS; Day 8): 1.032; enhancement factor (viability % of most effective monotherapy divided by viability % of combination) (GS261NS; Day 5): 1.271; enhancement factor (viability % of most effective monotherapy divided by viability % of combination) (GS261NS; Day 8): 1.462
